From patent US8653096B2, “Chemokine receptor antagonists and methods of use thereof” (Millennium Pharmaceuticals, Inc., priority 2001, dated 2014)

What follows are substances tested against T1, RANTES/MIP-1α chemokine receptor (CCR1) in THP-1 cell membranes (Homo sapiens, UniProt P32246) (assay: Receptor binding assay: 125I-RANTES or 125I-MIP-1α binding to THP-1 cell membranes). Settings: inhibitor concentration required for 50% inhibition of specific binding; 125I-RANTES or 125I-MIP-1α as ligand, THP-1 cell membranes; read-out: IC50.
T1 construct: Membranes were prepared from THP-1 cells (ATCC #TIB202); host or cells: THP-1 cells (membrane preparation)
T1 sequence (P32246 1-355): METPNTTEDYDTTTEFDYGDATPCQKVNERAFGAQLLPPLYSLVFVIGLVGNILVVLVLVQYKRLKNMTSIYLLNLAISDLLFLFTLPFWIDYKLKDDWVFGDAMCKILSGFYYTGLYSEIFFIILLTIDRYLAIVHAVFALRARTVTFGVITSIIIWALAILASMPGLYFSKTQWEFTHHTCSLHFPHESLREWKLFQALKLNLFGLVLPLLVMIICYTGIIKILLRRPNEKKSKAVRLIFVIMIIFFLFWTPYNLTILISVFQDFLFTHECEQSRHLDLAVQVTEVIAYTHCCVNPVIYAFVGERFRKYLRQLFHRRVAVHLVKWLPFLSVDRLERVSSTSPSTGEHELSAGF
Procedure: Membranes were prepared from THP-1 cells (ATCC #TIB202). Cells were harvested by centrifugation, washed twice with PBS (phosphate-buffered saline), and the cell pellets were frozen at −70 to −85° C. The frozen pellet was thawed in ice-cold lysis buffer consisting of 5 mM HEPES (N-2-hydroxyethylpiperazine-N′-2-ethane-sulfonic acid) pH 7.5, 2 mM EDTA (ethylenediaminetetraacetic acid), 5 μg/ml each aprotinin, leupeptin, and chymostatin (protease inhibitors), and 100 μg/ml PMSF (phenyl methane sulfonyl fluoride—also a protease inhibitor), at a concentration of 1 to 5×10^7 cells/ml. This procedure results in cell lysis. The suspension was mixed well to resuspend all of the frozen cell pellet. Nuclei and cell debris were removed by centrifugation of 400×g for 10 minutes at 4° C. The supernatant was transferred to a fresh tube and the membrane fragments were collected by centrifugation at 25,000×g for 30 minutes at 4° C. The supernatant was aspirated and the pellet was resuspended in freezing buffer consisting of 10 mM HEPES pH 7.5, 300 mM sucrose, 1 μg/ml each aprotinin, leupeptin, and chymostatin, and 10 μg/ml PMSF (approximately 0.1 ml per each 10^8 cells). All clumps were resolved using a minihomogenizer, and the total protein concentration was determined using a protein assay kit (Bio-Rad, Hercules, Calif., cat #500-0002). The membrane solution was then aliquoted and frozen at −70 to −85° C. until needed.
Binding Assays utilized the membranes described above. […] The binding reactions were performed in 60 to 100 μl of a binding buffer consisting of 10 mM HEPES pH 7.2, 1 mM CaCl2, 5 mM MgCl2, and 0.5% BSA (bovine serum albumin), for 60 min at room temperature. The binding reactions were terminated by harvesting the membranes by rapid filtration through glass fiber filters (GF/B or GF/C, Packard) which were presoaked in 0.3% polyethyleneimine. The filters were rinsed with approximately 600 μl of binding buffer containing 0.5 M NaCl, dried, and the amount of bound radioactivity was determined by scintillation counting in a Topcount beta-plate counter.
Specific binding is defined as the total binding minus the non-specific binding; non-specific binding is the amount of cpm still detected in the presence of excess unlabeled Rantes or MIP-1α.

“1-(2-Chlorophenylsulfonyl)-4-[3-(5,11-Dihydro-7-methoxy[1]benzoxepino[2,3-b]pyridin-5-ylidene)propyl]piperazine [Example 190]” and “1-(3-Chlorophenylsulfonyl)-4-[3-(5,11-Dihydro-7-methoxy[1]benzoxepino[2,3-b]pyridin-5-ylidene)propyl]piperazine [Example 191]” cannot be ordered by IC50: > 10 µM for the first, > 10 µM for the second.

First: 1-(4-Chlorophenyl)-4-[3-(5,11-dihydro-7-methoxy[1]benzoxepino[2,3-b]pyridin-5-ylidene)propyl]piperazine [Example 71]
Second: 1-(4-Chlorophenylsulfonyl)-4-[3-(5,11-Dihydro-7-methoxy[1]benzoxepino[2,3-b]pyridin-5-ylidene)propyl]piperazine [Example 192]
The IC50 of the first is lower: < 1 µM for the first, > 10 µM for the second. The first is the more potent here.

“1-Cyclohexyl-4-[3-(5,11-dihydro-7-methoxy[1]benzoxepino[2,3-b]pyridin-5-ylidene)propyl]piperazine [Example 73]” and “1-[3-(5,11-Dihydro-7-methoxy[1]benzoxepino[2,3-b]pyridin-5-ylidene)propyl]-4-(2-furoyl)piperazine [Example 74]” cannot be ordered by IC50: < 10 µM for the first, < 1000 µM for the second.

“1-[3-(5,11-Dihydro-7-methoxy[1]benzoxepino[2,3-b]pyridin-5-ylidene)propyl]-4-(2-hydroxyphenyl)piperidine [Example 184]” and “1-[3-(5,11-Dihydro-7-methoxy[1]benzoxepino[2,3-b]pyridin-5-ylidene)propyl]-4-(2-pyridyl)piperidin-4-ol [Example 147]” cannot be ordered by IC50: < 10 µM for the first, < 10 µM for the second.

“1-[3-(5,11-Dihydro-7-methoxy[1]benzoxepino[2,3-b]pyridin-5-ylidene)propyl]-4-(2-pyrimidyl)piperazine [Example 72]” and “1-[3-(5,11-Dihydro-7-methoxy[1]benzoxepino[2,3-b]pyridin-5-ylidene)propyl]-4-(3-pyridyl)piperidin-4-ol [Example 148]” cannot be ordered by IC50: < 10 µM for the first, < 10 µM for the second.

“1-[3-(5,11-Dihydro-7-methoxy[1]benzoxepino[2,3-b]pyridin-5-ylidene)propyl]-4-(4-fluoro-3-methylphenyl)piperidin-4-ol [Example 143]” and “1-[3-(5,11-Dihydro-7-methoxy[1]benzoxepino[2,3-b]pyridin-5-ylidene)propyl]-4-(4-fluorophenyl)piperidin-4-ol [Example 77]” cannot be ordered by IC50: < 1 µM for the first, < 1 µM for the second.

“1-[3-(5,11-Dihydro-7-methoxy[1]benzoxepino[2,3-b]pyridin-5-ylidene)propyl]-4-(4-hydroxyphenyl)piperidin-4-ol [Example 142]” and “1-[3-(5,11-Dihydro-7-methoxy[1]benzoxepino[2,3-b]pyridin-5-ylidene)propyl]-4-(4-hydroxyphenyl)piperidine [Example 183]” cannot be ordered by IC50: < 10 µM for the first, < 1 µM for the second.

“1-[3-(5,11-Dihydro-7-methoxy[1]benzoxepino[2,3-b]pyridin-5-ylidene)propyl]-4-(4-methoxyphenyl)piperidin-4-ol [Example 140]” and “1-[3-(5,11-Dihydro-7-methoxy[1]benzoxepino[2,3-b]pyridin-5-ylidene)propyl]-4-(4-pyridyl)piperidin-4-ol [Example 149]” cannot be ordered by IC50: > 10 µM for the first, < 1000 µM for the second.

“1-[3-(5,11-Dihydro-7-methoxy[1]benzoxepino[2,3-b]pyridin-5-ylidene)propyl]-4-(4-trifluoromethylphenyl)piperidin-4-ol [Example 150]” and “1-[3-(5,11-Dihydro-7-methoxy[1]benzoxepino[2,3-b]pyridin-5-ylidene)propyl]-4-phenylpiperidine [Example 64]” cannot be ordered by IC50: < 10 µM for the first, < 1 µM for the second.

“1-[3-(5,11-Dihydro-7-methoxy[1]benzoxepino[2,3-b]pyridin-5-ylidene)propyl]-4-piperidinopiperidine [Example 66]” and “1-[3-(5,11-Dihydro-7-methoxy[1]benzoxepino[2,3-b]pyridin-5-ylidene)propyl]piperidin-4-ol [Example 61]” cannot be ordered by IC50: < 1000 µM for the first, < 10 µM for the second.

“1-[3-(7-(1-Carboxy-1-methylethyl)oxy-5,11-dihydro [1]benzoxepino[2,3-b]pyridin-5-ylidene)propyl]-4-(4-chlorophenyl)piperidin-4-ol [Example 139]” and “1-[3-(7-(1-Carboxy-1-methylethyl)oxy-5,11-dihydro[1]benzoxepino[2,3-b]pyridin-5-ylidene)propyl]-4-(4-chlorophenyl)piperidine [Example 159]” cannot be ordered by IC50: < 1 µM for the first, < 1 µM for the second.

“1-[3-(7-(1-Carboxyethyl)oxy-5,11-dihydro[1]benzoxepino[2,3-b]pyridin-5-ylidene)propyl]-4-(4-chlorophenyl)piperidin-4-ol [Example 178]” and “1-[3-(7-(2-Carbamoyl)ethyl-5,11-dihydro[1]benzoxepino[2,3-b]pyridin-5-ylidene)propyl]-4-(4-chlorophenyl)-piperidin-4-ol [Example 218]” cannot be ordered by IC50: < 1 µM for the first, < 1 µM for the second.

“1-[3-(7-(2-Carboxy)ethenyl-5,11-dihydro[1]benzoxepino[2,3-b]pyridin-5-ylidene)propyl]-4-(4-chlorophenyl)piperidin-4-ol [Example 172]” and “1-[3-(7-(2-Carboxy)ethyl-5,11-dihydro[1]benzoxepino[2,3-b]pyridin-5-ylidene)propyl]-4-(4-chlorophenyl)-piperidin-4-ol [Example 123]” cannot be ordered by IC50: < 1 µM for the first, < 1 µM for the second.

“1-[3-(7-Bromo-5,11-dihydro[1]benzoxepino[2,3-b]pyridin-5-ylidene)propyl]-4-(4-chlorophenyl)piperidin-4-ol [Example 162]” and “1-[3-(7-Carbamoyl-5,11-dihydro[1]benzoxepino[2,3-b]pyridin-5-ylidene)propyl]-4-(4-chlorophenyl)piperidin-4-ol [Example 269]” cannot be ordered by IC50: < 1 µM for the first, < 1 µM for the second.

“1-[3-(7-Carbamoylmethyl-5,11-dihydro[1]benzoxepino[2,3-b]pyridin-5-ylidene)propyl]-4-(4-chlorophenyl)-piperidin-4-ol [Example 281]” and “1-[3-(7-Carbamoylmethyloxy-5,11-dihydro[1]benzoxepino[2,3-b]pyridin-5-ylidene)propyl]-4-(4-chlorophenyl)piperidin-4-ol [Example 181]” cannot be ordered by IC50: < 1 µM for the first, < 1 µM for the second.

“1-[3-(7-Carboxy-5,11-dihydro[1]benzoxepino[2,3-b]pyridin-5-ylidene)propyl]-4-(4-chlorophenyl)piperidin-4-ol [Example 118]” and “1-[3-(7-Carboxymethyloxy-5,11-dihydro[1]benzoxepino[2,3-b]pyridin-5-ylidene)propyl]-4-(4-chlorophenyl)piperidin-4-ol [Example 133]” cannot be ordered by IC50: < 1 µM for the first, < 1 µM for the second.

“1-[3-(7-Chloro-5,11-dihydro[1]benzoxepino[2,3-b]pyridin-5-ylidene)propyl]-4-(4-chlorophenyl)piperidin-4-ol [Example 117]” and “1-[3-(8-Bromo-5,11-dihydro[1]benzoxepino[2,3-b]pyridin-5-ylidene)propyl]-4-(4-chlorophenyl)piperidin-4-ol [Example 54]” cannot be ordered by IC50: < 1 µM for the first, < 1 µM for the second.

“1-[3-(8-Bromo-5,11-dihydro[1]benzoxepino[2,3-b]pyridin-5-ylidene)propyl]-4-(4-chlorophenyl)piperidine [Example 160]” and “1-[3-(8-Carboxy-5,11-dihydro[1]benzoxepino[2,3-b]pyridin-5-ylidene)propyl]-4-(4-chlorophenyl)piperidine [Example 161]” cannot be ordered by IC50: < 1 µM for the first, < 10 µM for the second.

“1-{3-[7-(1-Hydroxy-1-methyl-ethyl)-11H-10-oxa-1-aza-dibenzo[a,d]cyclohepten-5-ylidene]-propyl}-4-phenyl-piperidin-4-ol [Example 488]” and “1′-[3-(5,11-Dihydro-7-methoxy[1]benzoxepino[2,3-b]pyridin-5-ylidene)propyl]spiro[isobenzofuran-1(3H), 4′-piperidine] [Example 90]” cannot be ordered by IC50: < 1 µM for the first, < 1 µM for the second.
